Data: paper PMC4913735, “Non‐glycosidic compounds can stimulate both human and mouse iNKT cells” (European Journal of Immunology, 2016)

Experiments:
[1] = tested on: iNKT hybridoma DN32.D3; experiment: Lipid‐pulsed, washed BMDC stimulation of iNKT hybridoma DN32.D3 (IL‐2); assay type: cell-based, mouse; details: 10 and 1 ng agonist; up to 24 h after wash; compared with α‐GalCer
Procedure: The difference between the functional activity of ThrCer 6 and α‐GalCer, particularly noticeable at low concentrations, may be accounted for by differences in their bioavailability. To address this possibility, bone marrow (BM) derived DC were incubated with a range of different iNKT‐cell agonists at different concentrations overnight, then washed and incubated with fresh media for increasing lengths of time. Lipid‐pulsed DC were then used to stimulate the iNKT‐hybridoma DN32.D3 (Fig. 6A). […] The difference between the ThrCer 6 and ThrCer 7 analogs and α‐GalCer started to be evident as early as 3 h after lipid‐pulsed DC were washed (Fig. 6A).
Figure 6 Enhanced bioavailability of ThrCer 6 as compared to ThrCer and α‐GalCer. (A) Mouse BMDCs were pulsed for 6 h with 100, 10, or 1 ng/mL of indicated iNKT‐cell agonists. […] Diminished bioavailability is expressed as a percentage of the maximum DN32.D3 activation by each iNKT‐cell agonist. […] (B) IL‐2 in the supernatant from coculture of DN32.D3 with CD11c^+ cells isolated after 64 h was determined by ELISA. […] Significance was calculated between α‐GalCer and ThrCer 6. *p < 0.05, **p < 0.01, ***p < 0.001, ****p < 0.0001; Student's t‐test.
Levels of iNKT‐cell agonists, presented by CD1d on the surface of cells, were assessed by the amount of IL‐2 secreted by iNKT hybridoma DN32.D3 coincubated with the presenting cells for 17–24 h. […]

[2] = tested on: B16 melanoma cells; experiment: B16 melanoma lung metastasis model; assay type: in vivo, C57BL/6 mice; details: 1 and 0.1 ng i.v.; versus ThrCer; comparable protection at 1000‐fold lower dose than ThrCer
Procedure: To this end, mice were injected i.v. with a range of doses of lipids (100, 1, 0.1 ng) and 3 days later, challenged with i.v. injected 5 × 10^5 B16 melanoma cells. Fourteen days later, the metastasis load in the lungs was quantified. […] With a reduction in lipid dose, the extent of tumor metastasis burden increased to varying degrees.
(A) Mice were immunized with 100, 1, or 0.1 ng of lipids i.v. 3 days before receiving an i.v. challenge with 5 × 10^5 B16 melanoma cells (n = 4/group). Two weeks later the lungs were removed and the number of metastatic nodules quantified as described in section “Materials and methods”. Data in the three panels are shown as mean ± SEM of tumor area as percentage of total lung area, and are representative of two independent experiments. (B) Representative lung lobe from each group is shown. Photographic images are representative of four lung lobes in each of two independent experiments.
C57BL/6 mice were challenged i.v. with syngeneic B16F10 melanoma, resuspended in PBS. A total of 5 × 10^5 cells in 200 μL were administered 3 days after administration of indicated doses of iNKT‐cell agonists (100, 1, or 0.1 ng). Two weeks after challenge, mice were killed, lungs removed, imaged and the percentage of lung tumor metastases quantified using Adobe Photoshop®.

[3] = tested on: OVA‐specific CD8+ T cells; experiment: OVA‐specific CD8+ T‐cell response after OVA plus lipid i.v. (H‐2Kb/OVA257–264 tetramer); assay type: in vivo, mice
Procedure: In order to assess the downstream effect of treatment with low concentrations of lipid in vivo, mice were injected with the model antigen OVA together with two different doses of ThrCer 6 and α‐GalCer. Seven days later, OVA‐specific CD8^+ T cells were detected in the blood by H‐2 K^b/OVA257–264 tetramer staining of CD8^+ T cells.
(A and B) Mice were given 400 μg OVA together with i.v. injection of vehicle or 10 or 750 ng of either α‐GalCer or ThrCer 6. OVA‐specific CD8^+ T cells were enumerated in the blood using tetrameric H‐2K^b/OVA257–264 flow cytometry at (A) day 7 and at (B) day 12. Each square or circle represents the data for a single mouse (n = 4–6/group). Data shown as mean ± SEM and are representative of three independent experiments. **p = 0.0012, *p = 0.0114; Student's t‐test.
Mice were bled on day 7 post immunization of lipids and peripheral blood lymphocytes (PBL) stained with tetrameric H‐2 K^b/OVA257–264 peptide complexes, as previously described 27. A representative tetramer staining is shown in Supporting Information Figure 4.

Structure (SMILES)	Activation of DN32.D3 by lipid‐pulsed, washed BMDC [1]	Protection against B16 lung metastases at reduced lipid dose [2]	Frequency of OVA‐specific CD8+ T cells, 10 ng lipid ([3]; 10 ng i.v. with 400 μg OVA, day 7, compared with 10 ng α‐GalCer)	Frequency of OVA‐specific CD8+ T cells, 10 ng lipid, day 12 ([3]; 10 ng i.v. with OVA, day 12, higher frequency than α‐GalCer)
CCCCCCCCCCCCCCCCCCCCCCCCCC(=O)N[C@@H](CO[C@H]1CC[C@H](O)[C@H](O)[C@H]1O)[C@H](O)[C@H](O)CCCCCCCCCCCCCC [ThrCer 6]	enhanced ability to activate DN32.D3	far greater protection	statistically significant higher frequency	persisted at day 12
CCCCCCCCCCCCCCCCCCCCCCCCCC(=O)N[C@@H](CO[C@H]1O[C@H](CO)[C@H](O)[C@H](O)[C@H]1O)[C@H](O)[C@H](O)CCCCCCCCCCCCCC [α‐GalCer, α‐galactosylceramide, reference compound]	–	far greater protection	–	–
